The results in this text go back to US20250360142A1, “NOVEL ATP-SENSITIVE POTASSIUM CHANNEL POTENTIATORS, THEIR PREPARATION AND USE” (RHYTHM PHARMACEUTICALS, INC., priority 2022, published 2025).

The term IC50 denotes the concentration at which inhibition is half-maximal. A high value points to lower potency. As usually defined, the inhibition is the percentage by which the read-out fell short of the control. A higher inhibition goes with strong suppression.

The first experiment deals with INS-1E cells. Briefly: Glucose stimulated insulin secretion assay (GSIS) in INS-1E cells. The format is cell-based, rat. The settings on record: INS-1E cell line, average inhibition. The method, then: (§1) INS-1E, rat pancreatic tumor (insulinoma) cells were used in the GSIS assay. INS-1E cells were thawed and incubated in culture medium (CM) (RPMI 1640+Glucose q.s., HEPES 25 mM, Na-Pyruvat 1 mM, 2-Mercaptoethanol 50 μM, Fetal Calf Serum; heat inactivated (FCS) 10%, Penicillin/Streptomycin 100 U/ml) at 37° C.; 5% CO2 in a humidified atmosphere. 96 welled plates are coated with Matrigel by incubating the plates with 1 ml pre-diluted 1:10 with cold basal medium with 100 μl/well at 37° C. for 1 hour. Matrigel is then removed and replaced with 100 μl CM. Cells are then seeded into the wells as 70 000 cells/well. CM is refreshed with 200 μl fresh CM on the third day. CM is refreshed again with 200 μl fresh CM on the sixth day. GSIS assay is performed on the seventh day and cells in wells are washed with PKrebs®BSA and incubated with 100 μL/well for 2 h. Secretion plates are placed in an incubator at 37° C., 5% C02 and saturated humidity for 60 min. Meanwhile, lysis solution is prepared by adding 1 tablet of protease inhibitor/10 mL TETG solution and kept at 4° C. until the end of the experiment. The other incubation buffers are prepared without adding pharmacological compounds, aliquoted and then placed in a water bath at 37° C. The samples are prepared including negative (βKrebs®B0=0 mM Glucose) and positive controls (PKrebs®B20=20 mM Glucose) and each compound to be tested is diluted in DMSO as having a series of final concentration including 10.00, 4.00, 1.60, 0.64, 0.26, 0.10, 0.04, 0.02 μM.
(§2) After 2 hours of starvation, glucose stimulation and treatments are initiated. KRB Buffer from cells is removed by pipetting. The solutions are homogenized and the cells are treated with 90 µL/well. 10 μl from 10-fold compound dilution is added to the assay plate (final 100 μl/well) according to the following layout for each compound to be tested.
(§3) Incubation time is 40 minutes. Plates are placed in an incubator at 37° C., 5% CO2 and saturated humidity. After incubation, 80 μL of supernatants are collected without disrupting the cell layer and stored at 4° C. or on ice until centrifugation. Remaining medium are removed from each well and 100 μL/well of cold lysis solution is added and incubated for minimum 2 minutes at room temperature. Cell lysis is observed under microscope and waited for maximum for 5 more minutes until the lysis is complete. Cell lysates are collected and all samples including supernatants are centrifuged at 700×g, 5 min at 4° C. 30 μL of each samples are transferred into aliquots for ELISA. ELISA is performed with HTRF Assay Kit comprising an insulin high range kit supplied by Cisbio/Perkin Elmer. 5 μl of each Insulin standard and 5 μl of either supernatant or lysate are transferred on HTRF plate. 40 μl/well of Anti-insulin—XL665 and 20 μl/well of Anti-insulin—EU are added to each well and the plate is read on HTRF compatible reader (fluorescence 620 nm & 665 nm).
Consider `CC1(C)CC1NC1=NS(=O)(=O)c2cc(F)ccc2N1` (single isomer, unassigned) [Compound 7, (R*)-3-((2,2-dimethylcyclopropyl)amino)-7-fluoro-4H-benzo[e][1,2,4]thiadiazine 1,1-dioxide], for which the “% inhibition of Insulin (Average Inhibition (%))” value (“% inhibition of Insulin” below) is “B (B is equal to 25-50% inhibition)”.

As for `O=S1(=O)N=C(NC2CC23CC3)Nc2ccc(F)cc21` (single isomer, unassigned) [Compound 9, (S*)-7-fluoro-3-(spiro[2.2]pentan-1-ylamino)-4H-benzo[e][1,2,4]thiadiazine 1,1-dioxide], the “% inhibition of Insulin” value is on record as “B (B is equal to 25-50% inhibition)”.

As for `O=S1(=O)N=C(NC2CC23CCC3)Nc2ccc(F)cc21` (centres unmarked) [Compound 11, 7-fluoro-3(spiro[2.3]hexan-1-ylamino)-4H-benzo[e][1,2,4]thiadiazine 1,1-dioxide], the “% inhibition of Insulin” value is listed as “B (B is equal to 25-50% inhibition)”.

With `CCC1(NC2=NS(=O)(=O)c3cc(F)ccc3N2)CC1` [Compound 12, 3-((1-ethylcyclopropyl)amino)-7-fluoro-4H-benzo[e][1,2,4]thiadiazine 1,1-dioxide], the “% inhibition of Insulin” value is “C (C is equal to 10-25% inhibition)”.

In the case of `CC12CC(NC3=NS(=O)(=O)c4cc(F)c(Cl)cc4N3)(C1)C2` [Compound 18, 6-chloro-7-fluoro-3-((3-methylbicyclo[1.1.1]pentan-1-yl)amino)-4H-benzo[e][1,2,4]thiadiazine 1,1-dioxide], the “% inhibition of Insulin” value is given as “C (C is equal to 10-25% inhibition)”.

Staying with this experiment, now noted: Rattus norvegicus, INS-1E cell line.
In the case of `O=S1(=O)N=C(NC2CC23CCC3)Nc2ccc(F)cc21` (centres unmarked) [Compound 11, 7-fluoro-3(spiro[2.3]hexan-1-ylamino)-4H-benzo[e][1,2,4]thiadiazine 1,1-dioxide], the half-inhibitory concentration (IC50) fell in the range of 500 to 1000 nM.

Staying with this experiment, now noted: Rattus norvegicus, INS-1E cells, 10 μM.
`O=S1(=O)N=C(NC(CF)CF)Nc2ccc(F)cc21` [Compound 43]: the inhibition at 10 µM lay within 10 to 25%.

With `CC1(NC2=NS(=O)(=O)c3cc(F)ccc3N2)CC1` [Compound 46], the inhibition at 10 µM was ≥ 50%.

`O=S1(=O)N=C(NC2(CF)CC2)Nc2ccc(F)cc21` [Compound 47] had an inhibition at 10 µM of 10 to 25%.

For the compound `O=S1(=O)N=C(NC(CF)CF)Nc2ccc(Cl)cc21` [Compound 49], the inhibition at 10 µM is ≥ 50%.

`CC1(NC2=NS(=O)(=O)c3cc(Cl)ccc3N2)CC1` [Compound 51] returned an inhibition at 10 µM of 10 to 25%.

Consider `O=S1(=O)N=C(NC2(CF)CC2)Nc2ccc(Cl)cc21` [Compound 52], for which the inhibition at 10 µM is 10 to 25%.

As to `CC1(NC2=NS(=O)(=O)c3cc(F)c(Cl)cc3N2)CC1` [Compound 58], the inhibition at 10 µM is ≥ 50%.

For `O=S1(=O)N=C(NC2(CF)CC2)Nc2cc(Cl)c(F)cc21` [Compound 60], the inhibition at 10 µM is ≥ 50%.

Compound `O=S1(=O)N=C(NC23CC(C2)C3)Nc2ccc(Cl)cc21` [Compound 62] registered an inhibition at 10 µM of 25 to 50%.

In the case of `CC(C)C1(NC2=NS(=O)(=O)c3cc(F)ccc3N2)CC1` [Compound 63], the inhibition at 10 µM is ≥ 50%.

Regarding `CC(C)C1(NC2=NS(=O)(=O)c3cc(F)c(Cl)cc3N2)CC1` [Compound 64], the inhibition at 10 µM fell in the range of 25 to 50%.

For the compound `COCC1(NC2=NS(=O)(=O)c3cc(F)ccc3N2)CCC1` [Compound 65], the inhibition at 10 µM fell in the range of 25 to 50%.

As for `COCC1(NC2=NS(=O)(=O)c3cc(F)c(Cl)cc3N2)CCC1` [Compound 69], the inhibition at 10 µM is ≥ 50%.

For the compound `O=S1(=O)N=C(NC2CCOC2)Nc2ccc(F)cc21` (centres unmarked) [Compound 71], the inhibition at 10 µM is 10 to 25%.

For the compound `O=S1(=O)N=C(NC2CCOC2)Nc2ccc(Cl)cc21` (centres unmarked) [Compound 72], the inhibition at 10 µM is 25 to 50%.

Take `O=S1(=O)N=C(NC2CCOC2)Nc2cc(Cl)c(F)cc21` (centres unmarked) [Compound 73]: the inhibition at 10 µM was ≥ 50%.

For a further experiment, the system named is EndoC-βH1 Cell Line. Briefly: GSIS assay in EndoC-βH1 cell line. The format is cell-based.
Conditions: not given
The procedure: as §1, §2, §3
GSIS experiments were also performed in other cell lines, e.g., EndoC-βH1, a canonical cell line for screening new therapeutic compounds.
On to `O=S1(=O)N=C(NC2CC23CCC3)Nc2cc(Cl)c(F)cc21` (single isomer, unassigned) [Compound 16, (S*)-6-chloro-7-fluoro-3-(spiro[2.3]hexan-1-ylamino)-4H-benzo[e][1,2,4]-thiadiazine 1,1-dioxide], for which the 50% inhibitory concentration (IC50) was in the range of 500 to 1000 nM.

Consider `O=S1(=O)N=C(NC2CC23CCC3)Nc2cc(Cl)c(F)cc21` (single isomer, unassigned) [Compound 17, (R*)-6-chloro-7-fluoro-3-(spiro[2.3]hexan-1-ylamino)-4H-benzo[e][1,2,4]-thiadiazine 1,1-dioxide], for which the IC50 was < 500 nM.

The compound `CC1(C)CC1NC1=NS(=O)(=O)c2cc(F)c(Cl)cc2N1` (single isomer, unassigned) [Compound 21, (S*)-6-chloro-3-((2,2-dimethylcyclopropyl)amino)-7-fluoro-4H benzo[e][1,2,4] thiadiazine 1,1-dioxide] displayed a half-inhibitory concentration (IC50) of 500 to 1000 nM.

The compound `CC1(C)CC1NC1=NS(=O)(=O)c2cc(F)c(Cl)cc2N1` (single isomer, unassigned) [Compound 22, (R*)-6-chloro-3-((2,2-dimethylcyclopropyl)amino)-7-fluoro-4H-benzo[e][1,2,4] thiadiazine 1,1-dioxide] came in with an IC50 of 1000 to 2000 nM.

`O=S1(=O)N=C(NC2CC23CC3)Nc2cc(Cl)c(F)cc21` (single isomer, unassigned) [Compound 29, (S*)-6-chloro-7-fluoro-3-(spiro[2.2]pentan-1-ylamino)-4H-benzo[e][1,2,4]-thiadiazine 1,1-dioxide]: the half-inhibitory concentration (IC50) is ≥ 2000 nM.

Take `O=S1(=O)N=C(NC2CC23CC3)Nc2cc(Cl)c(F)cc21` (single isomer, unassigned) [Compound 30, (R*)-6-chloro-7-fluoro-3-(spiro[2.2]pentan-1-ylamino)-4H-benzo[e][1,2,4]-thiadiazine 1,1-dioxide]: the IC50 is < 500 nM.

`C[C@H]1C[C@@H]1NC1=NS(=O)(=O)c2cc(F)c(Cl)cc2N1` (stereo in doubt) [Compound 26, 6-chloro-7-fluoro-3-(((1S*, 2S*)-2-methylcyclopropyl)amino)-4H-benzo[e][1,2,4]-thiadiazine 1,1-dioxide]: the IC50 was in the range of 1000 to 2000 nM.

Regarding `C[C@@H]1C[C@H]1NC1=NS(=O)(=O)c2cc(F)c(Cl)cc2N1` (stereo in doubt) [Compound 27, 6-chloro-7-fluoro-3-(((1R*, 2R*)-2 methylcyclopropyl)amino)-4H-benzo[e][1,2,4]-thiadiazine 1,1-dioxide], the 50% inhibitory concentration (IC50) is ≥ 2000 nM.

On to `CC1(NC2=NS(=O)(=O)c3cc(F)ccc3N2)CCC1` [Compound 2, 7-fluoro-3-((1-methylcyclobutyl)amino)-4H-benzo[e][1,2,4]thiadiazine 1,1-dioxide], for which the half-inhibitory concentration (IC50) is < 500 nM.

For `O=S1(=O)N=C(NC23CC(F)(C2)C3)Nc2ccc(F)cc21` [Compound 3, 7-fluoro-3-((3-fluorobicyclo[1.1.1]pentan-1-yl)amino)-4H-benzo[e][1,2,4]thiadiazine 1,1-dioxide], the concentration for half-maximal inhibition (IC50) was ≥ 2000 nM.

With `O=S1(=O)N=C(NC23CCC(C2)C3)Nc2ccc(F)cc21` [Compound 4, 3-(bicyclo[2.1.1]hexan-1-ylamino)-7-fluoro-4H-benzo[e][1,2,4]thiadiazine 1,1-dioxide], the half-inhibitory concentration (IC50) lay within 500 to 1000 nM.

`CC1(C)CC1NC1=NS(=O)(=O)c2cc(F)ccc2N1` (centres unmarked) [Compound 5, 3-((2,2-dimethylcyclopropyl)amino)-7-fluoro-4H-benzo[e][1,2,4]thiadiazine 1,1-dioxide]: the IC50 is 1000 to 2000 nM.

Regarding `O=S1(=O)N=C(NC2CC23CC3)Nc2ccc(F)cc21` (centres unmarked) [Compound 8, 7-fluoro-(spiro[2.2]pentan-1-ylamino)-4H-benzo[e][1,2,4]thiadiazine 1,1-dioxide], the IC50 fell in the range of 1000 to 2000 nM.
